Test results as given in patent US8318726B2, “Benzylidineanthracenone linked pyrrolobenzodiazepine hybrids useful as anticancer agents and process for the preparation thereof” (Council of Scientific & Industrial Research, priority 2010, dated 2012).
Read-outs that look alike come from different tables or passages of the source.

Assays:
[1] = system: duplex-form calf thymus DNA (CT-DNA); experiment: Thermal denaturation studies with calf thymus DNA; format: binding; conditions: [PBD]:[DNA] molar ratio 1:5, CT-DNA 100 μM, ligand 20 μM, pH 7.00
Method: Compounds were subjected to thermal denaturation studies with duplex-form calf thymus DNA (CT-DNA) using an adaptation of a reported procedure. Working solutions in aqueous buffer (10 mM NaH2PO41Na2HPO4, 1 mM Na2EDTA, pH 7.00±0.01) containing CT-DNA (100 μm in phosphate) and the PBD (20 μm) were prepared by addition of concentrated PBD solutions in DMSO to obtain a fixed [PBD]/[DNA] molar ratio of 1:5. The DNA-PBD solutions were incubated at 37° C. for 0, 18, and 36 h prior to analysis. Samples were monitored at 260 nm using a Beckman DU-7400 spectrophotometer fitted with high performance temperature controller, and heating was applied at 1° C. min^−1 in the 40-90° C. range. DNA helix→coil transition temperatures (Tm) were obtained from the maxima in the d(A260)/dT derivative plots. Results are given as the mean±standard deviation from three determinations and are corrected for the effects of DMSO co-solvent using a linear correction term. Drug-induced alterations in DNA melting behaviour are given by: ΔTm=Tm(DNA+PBD)−Tm (DNA alone), where the Tm value for the PBD-free CT-DNA is 69.0±0.01.
For a 1:5 molar ratio of [PBD]/[DNA], where CT-DNA concentration=100 μM and ligand concentration=20 μM in aqueous sodium phosphate buffer [10 mM sodium phosphate+1 mM EDTA, pH 7.00±0.01]. The ΔTm for PBD hybrids 5b, 5c, 5d, 5h, 5m and 5r at a [PBD]:[DNA] molar ratio of 1:5 increased to a value of 7.5° C., 9.3° C., 8.9° C., 8.0° C., 7.1° C., and 8.4° C. after 18 h incubation respectively.

[2] = system: oral cancer cell lines (KB); experiment: In vitro cytotoxicity, SRB assay, oral cancer KB; format: cell-based, human
Text: (§1) The C8-linked benzylidineanthracenone-PBD hybrids have been tested against eight human tumor cell lines derived from seven cancer types (breast, ovarian, colon, prostate, cervix, lung and oral cancer). For each compound, dose response curves for individual cell lines have been measured at a minimum of five concentrations at 10 fold dilutions. A protocol of 48 hrs continuous drug exposure has been used, and a sulforhodamine B (SRB) protein assay was used to estimate cell viability or growth. The results are expressed as percent of cell growth determined relative to that of untreated control cells. The GI50 values are the concentration for 50% cell growth inhibition (GI50) compared with the control has been calculated.

[3] = system: prostate cancer cell lines (PC3); experiment: In vitro cytotoxicity, SRB assay, prostate cancer PC-3; format: cell-based, human
Text: as §1

[4] = system: colon cancer cell lines (Colo205); experiment: In vitro cytotoxicity, SRB assay, colon cancer Colo205; format: cell-based, human
Text: as §1

[5] = system: lung cancer cell lines (HoP62); experiment: In vitro cytotoxicity, SRB assay, lung cancer Hop62; format: cell-based, human
Text: as §1

[6] = system: ovarian cancer cell lines (A2780); experiment: In vitro cytotoxicity, SRB assay, ovarian cancer A2780; format: cell-based, human
Text: as §1

[7] = system: cervix cancer cell lines (SiHa); experiment: In vitro cytotoxicity, SRB assay, cervix cancer SiHa; format: cell-based, human
Text: as §1

[8] = system: breast cancer cell lines (MCF7); experiment: In vitro cytotoxicity, SRB assay, breast cancer MCF7; format: cell-based, human
Text: as §1

[9] = system: lung cancer cell lines (A549); experiment: In vitro cytotoxicity, SRB assay, lung cancer A-549; format: cell-based, human
Text: as §1

[10] = Homo sapiens, Oral KB, 48 hrs continuous drug exposure, SRB, read-out: GI50
[11] = Homo sapiens, oral cancer cell lines (KB), exposure period of at least 48 hrs, read-out: GI50 (range for the group)
[12] = Homo sapiens, Prostate PC-3, 48 hrs continuous drug exposure, SRB, read-out: GI50
[13] = Homo sapiens, prostate cancer cell lines (PC3), exposure period of at least 48 hrs, read-out: GI50 (range for the group)
[14] = Homo sapiens, COLO 205, Colon Colo205, 48 hrs continuous drug exposure, SRB, read-out: GI50
[15] = Homo sapiens, COLO 205, colon cancer cell lines (Colo205), exposure period of at least 48 hrs, read-out: GI50 (range for the group)
[16] = Homo sapiens, HOP-62, Lung Hop62, 48 hrs continuous drug exposure, SRB, read-out: GI50
[17] = Homo sapiens, HOP-62, lung cancer cell lines (HoP62), exposure period of at least 48 hrs, read-out: GI50 (range for the group)
[18] = Homo sapiens, Ovarian A2780, 48 hrs continuous drug exposure, SRB, read-out: GI50
[19] = Homo sapiens, ovarian cancer cell lines (A2780), exposure period of at least 48 hrs, read-out: GI50 (range for the group)
[20] = Homo sapiens, Cervix SiHa, 48 hrs continuous drug exposure, SRB, read-out: GI50
[21] = Homo sapiens, cervix cancer cell lines (SiHa), exposure period of at least 48 hrs, read-out: GI50 (range for the group)
[22] = Homo sapiens, Breast MCF7, 48 hrs continuous drug exposure, SRB, read-out: GI50
[23] = Homo sapiens, breast cancer cell lines (MCF7), exposure period of at least 48 hrs, read-out: GI50 (range for the group)
[24] = Homo sapiens, A549, Lung A-549, 48 hrs continuous drug exposure, SRB, read-out: GI50
[25] = Homo sapiens, lung cancer cell lines (A549), exposure period of at least 48 hrs, read-out: GI50 (range for the group)

Row | SMILES | ΔTm, drug-induced shift in DNA melting temperature ([1]; 0 h incubation at 37° C.) [°C] | ΔTm, drug-induced shift in DNA melting temperature ([1]; 18 h incubation at 37° C.) [°C] | GI50 [2, 10] [µM] | GI50 [2, 11] [µM] | GI50 [3, 12] [µM] | GI50 [3, 13] [µM] | GI50 [4, 14] [µM] | GI50 [4, 15] [µM] | GI50 [5, 16] [µM] | GI50 [5, 17] [µM] | GI50 [6, 18] [µM] | GI50 [6, 19] [µM] | GI50 [7, 20] [µM] | GI50 [7, 21] [µM] | GI50 [8, 22] [µM] | GI50 [8, 23] [µM] | GI50 [9, 24] [µM] | GI50 [9, 25] [µM] | also measured
1 | COc1cc(C=C2c3ccccc3C(=O)c3ccccc32)ccc1O [2a, 4-hydroxy-3-methoxybenzylidineanthracenone, reference compound] | 0.4 | 0.8 |  |  |  |  |  |  |  |  |  |  |  |  |  |  |  |  | 
2 | COc1cc2c(cc1O)N=CC1CCCN1C2=O (centres unmarked) [DC-81, reference compound] | 0.3 | 0.7 |  |  |  |  |  |  |  |  |  |  |  |  |  |  |  |  | GI50 ([2]; Oral KB, 48 hrs continuous drug exposure, SRB, read-out: GI50): 0.2 µM; GI50 ([3]; Prostate PC-3, 48 hrs continuous drug exposure, SRB, read-out: GI50): 0.2 µM; GI50 ([4]; Colon Colo205, 48 hrs continuous drug exposure, SRB, read-out: GI50): 0.12 µM; GI50 ([5]; Lung Hop62, 48 hrs continuous drug exposure, SRB, read-out: GI50): 0.15 µM; GI50 ([6]; Ovarian A2780, 48 hrs continuous drug exposure, SRB, read-out: GI50): 0.15 µM; GI50 ([7]; Cervix SiHa, 48 hrs continuous drug exposure, SRB, read-out: GI50): 0.17 µM; GI50 ([8]; Breast MCF7, 48 hrs continuous drug exposure, SRB, read-out: GI50): 2.19 µM; GI50 ([9]; Lung A-549, 48 hrs continuous drug exposure, SRB, read-out: GI50): 0.38 µM
3 | COc1cc2c(cc1OCCCCOc1cccc(C=C3c4ccccc4C(=O)c4ccccc43)c1)N=C[C@@H]1CCCN1C2=O [5m, 7-methoxy-8-(4-{3-[(10-oxo-9,10-dihydro-9-anthracenyliden)methyl]phenoxy}butoxy)-(11aS)-1,2,3,11a-5H-pyrrolo[2,1-c][1,4]benzodiazepin-5-one] | 6.5 | 7.1 | 2.4 | 0.18 to 2.5 | 0.18 | 0.15 to 2.2 | 0.14 | 0.11 to 0.14 | 0.23 | 0.17 to 0.26 | 0.16 | 0.148 to 0.168 | 2.2 | 2.2 to 31 | 0.17 | 0.09 to 0.18 | 1.82 | 0.155 to 1.94 | 
4 | COc1cc(C=C2c3ccccc3C(=O)c3ccccc32)ccc1OCCCCOc1cc2c(cc1OC)C(=O)N1CCC[C@H]1C=N2 [5c, 7-methoxy-8-(4-{2-methoxy-4-[(10-oxo-9,10-dihydro-9-anthracenyliden)methyl]phenoxy}butoxy)-(11aS)-1,2,3,11a-5H-pyrrolo[2,1-c][1,4]benzodiazepin-5-one] | 7.7 | 9.3 | 0.2 | 0.18 to 2.5 | 0.18 | 0.15 to 2.2 | 0.12 | 0.11 to 0.14 | 0.18 | 0.17 to 0.26 | 0.15 | 0.148 to 0.168 |  |  | 0.09 | 0.09 to 0.18 | 1.8 | 0.155 to 1.94 | 
5 | COc1cc(C=C2c3ccccc3C(=O)c3ccccc32)ccc1OCCCCCOc1cc2c(cc1OC)C(=O)N1CCC[C@H]1C=N2 [5d, 7-methoxy-8-(5-{2-methoxy-4-[(10-oxo-9,10-dihydro-9-anthracenyliden)methyl]phenoxy}pentoxy)-(11aS)-1,2,3,11a-5H-pyrrolo[2,1-c][1,4]benzodiazepin-5-one] | 7.4 | 8.9 | 0.18 | 0.18 to 2.5 | 0.15 | 0.15 to 2.2 |  |  | 0.17 | 0.17 to 0.26 | 0.15 | 0.148 to 0.168 | 2.2 | 2.2 to 31 | 0.15 | 0.09 to 0.18 | 1.94 | 0.155 to 1.94 | 
6 | COc1cc2c(cc1OCCCCOc1ccc(C=C3c4ccccc4C(=O)c4ccccc43)cc1)N=C[C@@H]1CCCN1C2=O [5h, 7-methoxy-8-(4-{4-[(10-oxo-9,10-dihydro-9-anthracenyliden)methyl]phenoxy}butoxy)-(11aS)-1,2,3,11a-5H-pyrrolo[2,1-c][1,4]benzodiazepin-5-one] | 6.6 | 8.0 | 2.4 | 0.18 to 2.5 | 2.2 | 0.15 to 2.2 | 0.11 | 0.11 to 0.14 | 0.2 | 0.17 to 0.26 | 0.168 | 0.148 to 0.168 | 2.5 | 2.2 to 31 | 0.16 | 0.09 to 0.18 | 0.15 | 0.155 to 1.94 | 
7 | COc1cc(C=C2c3ccccc3C(=O)c3ccccc32)ccc1OCCCOc1cc2c(cc1OC)C(=O)N1CCC[C@H]1C=N2 [5b, 7-methoxy-8-(3-{2-methoxy-4-[(10-oxo-9,10-dihydro-9-anthracenyliden)methyl]phenoxy}propoxy)-(11aS)-1,2,3,11a-5H-pyrrolo[2,1-c][1,4]benzodiazepin-5-one] | 6.1 | 7.5 | 0.19 | 0.18 to 2.5 | 0.18 | 0.15 to 2.2 | 0.11 | 0.11 to 0.14 | 0.19 | 0.17 to 0.26 | 0.148 | 0.148 to 0.168 | 2.2 | 2.2 to 31 | 0.14 | 0.09 to 0.18 | 1.76 | 0.155 to 1.94 | 
8 | COc1ccc(C=C2c3ccccc3C(=O)c3ccccc32)cc1OCCCCOc1cc2c(cc1OC)C(=O)N1CCC[C@H]1C=N2 [5r, 7-methoxy-8-(4-{2-methoxy-5-[(10-oxo-9,10-dihydro-9-anthracenyliden)methyl]phenoxy}butoxy)-(11aS)-1,2,3,11a-5H-pyrrolo[2,1-c][1,4]benzodiazepin-5-one] | 6.3 | 8.4 | 2.5 | 0.18 to 2.5 | 2.1 | 0.15 to 2.2 | 0.14 | 0.11 to 0.14 | 0.26 | 0.17 to 0.26 | 0.166 | 0.148 to 0.168 | 31 | 2.2 to 31 | 0.18 | 0.09 to 0.18 | 1.9 | 0.155 to 1.94 | 
